The text below walks through data of patent publication US6503873B1, “Ultra mild detergent compositions” (Hampshire Chemical Corp, priority 1996, dated 2003).

Data set [1] is described as follows: Lather stability (lather drainage time, method of Hart and DeGeorge). It counts as physicochemical. To be noted: for enhancement of lather stability of the product by addition as one-third of the product: 3:1 blend; for change in lather stability (lather drainage time) on addition of water hardness: approximately 3,000 ppm water hardness (CaCO3), FIG. 2. As for the experimental part: The lather stability of a surfactant solution, expressed as lather drainage time, can be determined by the method of Hart and DeGeorge, J. Soc. Cosmet. Chem., 31, 223-226 (1980). In this method, a 200 ml portion of the test solution is agitated in a blender for one minute. The lather produced is immediately poured into a Nalgene PF150 funnel, which has been modified for easy detection of endpoint by incorporation of a fine strand of Nicrome wire across the funnel, where the diameter is 9 cm. The funnel is supported by a 20-mesh sieve. The time elapsed between pouring of the blender contents into the funnel and reappearance of the wire through the subsiding foam, determined using a stopwatch, is reported as the lather drainage time in seconds.

The next data set concerns human skin cels. As to the kind of experiment: In vitro skin irritation testing (MTT assay). The format is cell-based. To be noted: tissue immersed for 24 hours; about 16% solutions. As for the experimental part: Samples of 1) the aforementioned commercial baby shampoo, 2) Na2LED3A, 3) a 3:1 ratio blend of baby shampoo and Na2LED3A, and 4) a 16% solution of sodium laureth 3 sulfate (a surfactant commonly used in ordinary shampoo) were subjected to in vitro skin irritation testing. A sample of the tissue is immersed for 24 hours in a solution of the substance to be evaluated and later assayed for viable mitochondria by an MTT assay. The MTT assay is a colorimetric method for determining cell viability based on the reduction of a tetrazolium salt (MTT) into a colored formazan dye by mitochondrial enzymes of the electron transport chain. The extent to which the number of viable mitochondria has been reduced, compared to a control, is taken as a measure of the toxicity of the test substance to human skin cels. The in vitro scoring classification used was as follows: […]

Setting [2] is: product Johnsons Baby 2 in 1 shampoo, hard water (200 ppm CaCO3).
[3] abbreviates: product Johnsons Baby 2 in 1 shampoo, soft water.
Where [4] appears, read: product Johnsons Baby Bath, hard water (200 ppm CaCO3).
The mark [5] stands for this setting: product Johnsons Baby Bath, soft water.
Where [6] appears, read: product Johnsons Baby Shampoo, hard water (200 ppm CaCO3).
The mark [7] stands for this setting: product Johnsons Baby Shampoo, soft water.
[8] abbreviates: product Suave Baby Care, hard water (200 ppm CaCO3).
[9] abbreviates: product Suave Baby Care, soft water.
Where [10] appears, read: sodium chloride, 1% solution, pH 7, FIG. 1.

Take `CCCCCCCCCCCC(=O)N(CCN(CC(=O)[O-])CC(=O)[O-])CC(=O)O.[K+].[K+]` [K2LED3A, potassium lauroyl-ED3A]: the “enhancement of lather stability of the product by addition as one-third of the product” value (shortened to “enhancement”) in data set [1] (setting [2]) is given as “approximately 7 fold”; in data set [1] (setting [3]), “more than 2 fold”; in data set [1] (setting [4]), “approximately 12 fold”; in data set [1] (setting [5]) it was “approximately 5 fold”; in data set [1] (product Johnsons Baby Shampoo, even harder water (400 ppm CaCO3)), “more than 24 fold”; in data set [1] (setting [6]) it was “more than 14 fold”. Moreover, the “enhancement” value is “approximately 8 fold” in data set [1] (setting [7]), 5 fold in data set [1] (setting [8]) and “approximately 2 fold” in data set [1] (setting [9]).

With `CCCCCCCCCCCCCC(=O)N(CCN(CC(=O)[O-])CC(=O)[O-])CC(=O)O.[Na+].[Na+]` [Na2MED3A, sodium myristoyl ED3A], the “enhancement” value in data set [1] (setting [2]) is listed as 9 fold; in data set [1] (setting [3]), “more than 9 fold”. The “lather effectiveness relative to the baby shampoo alone” value in data set [1] (pure substance, hard water, versus Johnsons Baby 2 in 1 shampoo, FIG. 11) was “more than 100 times”.

`CCCCCCCCCCCCOS(=O)(=O)[O-].[Na+]` [sodium lauryl sulfate, reference compound]: the “change in lather stability (lather drainage time) on addition of water hardness” value in data set [1] (1% solution) is “five-fold reduction”. Also, the “lather drainage time depressed by, upon addition of 4% electrolyte” value in data set [1] (setting [10]) came out at 30 s.

Turning to “sodium laureth 3 sulfate [Na Laureth(3) sulfate, reference compound]”, in the data set with human skin cels, the “Classification (in vitro skin irritation)” value was “Moderate (201-1,000)” and the “In vitro Score MTT-50” value was found to be 522 micro g/ml.

Turning to sodium lauroyl ED3A [Na2LED3A], the “Classification (in vitro skin irritation)” value with human skin cels was “Non-irritant (>10,000)”. The “In vitro Score MTT-50” value in the data set on human skin cels is given as >10,000 micro g/ml. Besides, the “change in lather stability (lather drainage time) on addition of water hardness” value in data set [1] (1% solution) is “five-fold increase”. Moreover, the lather drainage time result in data set [1] (in the presence of 200 ppm hardness, FIG. 10) is “over 200 seconds”. The “enhancement” value in data set [1] (setting [2]) was 5 fold; in data set [1] (setting [3]), “approximately 6 fold”; in data set [1] (setting [4]), “more than 12 fold”; in data set [1] (setting [5]), “more than 4 fold”; in data set [1] (setting [6]) it was “approximately 7 fold”; in data set [1] (setting [7]), “approximately 7 fold”. In addition, the “enhancement” value in data set [1] (setting [8]) is “more than 5 fold”; in data set [1] (setting [9]), “more than doubled”. Further, the “lather drainage time increased by, upon addition of 4% electrolyte” value in data set [1] (setting [10]) is reported as “more than 70 seconds”.
